Source: patent US20240390301A1, “COMBINATIONS OF PERIPHERAL 5-HT2A RECEPTOR ANTAGONISTS AND CENTRAL 5-HT2A RECEPTOR AGONISTS” (priority 2021, published 2024)
Like-named read-outs stand apart in the source and are kept apart here.

Assays:
in vitro = assay: in vitro; set-up: fraction unbound at 4 h: dose or concentration left out as unconfirmed; settings: rat, brain homogenate
Experimental: Various putative peripheral 5-HT2A receptor antagonists were tested for binding to rat brain homogenate via equilibrium dialysis, with the results summarized in Table 7.
Method 1. Rat brain homogenate was thawed in a water bath at room temperature and then incubated at 37° C. for 10 min before use. Aliquots of 50 μL of loading matrix containing test compound (2 μM final incubation concentration) or control compound in triplicate were transferred to a Sample Collection Plate. The samples were matched with opposite blank buffer to obtain a final volume of 100 μL with a volume ratio of matrix: Dialysis Buffer of 1:1 (v:v) in each well. The stop solution (200 ng/mL tolbutamide and 200 ng/ml labetalol in ACN) was immediately added to these T0 samples of test compound and control compound. The plate was sealed and shaken at 800 rpm for 10 min. T0 samples were stored at 2-8° C. pending further processing along with other post-dialysis samples. An aliquot of 100 μL of the loading matrix containing test compound or control compound was transferred to the donor side of each dialysis well in triplicate and 100 μL of the Dialysis Buffer was loaded to the receiver side of the well. Then the plate was rotated at approximately 100 rpm in a humidified incubator with 5% CO2 at 37±1° C. for 4 hours. At the end of the dialysis. aliquots of 50 μL from the buffer side and matrix side of the dialysis device were taken into new 96-well plates (Sample Collection Plates). An equal volume of opposite blank matrix (buffer or matrix) in each sample was added to reach a final volume of 100 μL, with a volume ratio of matrix: Dialysis Buffer of 1:1 (v:v) in each well. All samples were further processed by protein precipitation before LC-MS/MS analysis.
Method 2. Aliquots (200 μL) of test compounds and positive controls at […] in rat brain homogenate (triplicates) were added to the rapid equilibrium dialysis (RED) chamber of dialysis inserts. A 350 μL aliquot of dialysis buffer was added to the buffer chamber of the inserts. After sealing the RED device with an adhesive film, dialysis was conducted at 37° C. with shaking at 100 RPM for 4 hours. Following dialysis, an aliquot of 50 μL was removed from each well (brain homogenate and buffer) and diluted with an equal volume of opposite matrix to nullify the matrix effect. Similarly, buffer was added to recovery and stability samples. An aliquot of 100 μL was used for LC-MS/MS analysis following protein precipitation with ACN containing internal standard.

Rat plasma stability = assay type: in vitro ADME; settings: 37° C.
Experimental: The results were used to confirm that the plasma protein binding results were not confounded by poor plasma stability.
Method 1. […] Plasma was centrifuged at 4,000 rpm for 5 min and any clots were remove.
Method 2. […]

5-HT2A receptor = target: T1, 5-HT2A receptor (Homo sapiens, UniProt P28223); assay: FLIPR Ca2+ flux functional assay, antagonist activity at 5-HT2A; assay type: cell-based; settings: for 5-HT2A % Inh @ Max Dose: at max dose
T1 construct: WuXi AppTec (Hong Kong) Limited (contract laboratory that ran the assay)
Experimental: (§1) Key peripheral 5-HT2A receptors antagonists were tested for antagonist activity at several serotonin (5-HT) receptor subtypes (5-HT2A and 5-HT2B) using Ca^2+ flux functional assays, with the results summarized in Table 3. […] The ability to block peripheral 5-HT2B receptors in addition to 5-HT2A receptors is advantageous in the context of the present disclosure, as such blockade is likely to mitigate the potential cardiac valvulopathy induced by 5-HT2B receptor agonists. This is expected to be a potential side effect of many classical psychedelics, which activate 5-HT2B receptors as a secondary target. Accordingly, xylamidine and BW501C67 are preferred over Compound 14a for use in combination with 5-HT2A receptor agonists that also activate 5-HT2B receptors, since they also block this important off target. When taken together with the binding data presented above, xylamidine and BW501C67 appear to be potent pan-antagonists for 5-HT2-type receptors, whereas Compound 14a is selective for 5-HT2A receptors specifically.
(§2) Functional Assays at 5-HT2A and 5-HT2B. Antagonist activity at 5-HT2A and 5-HT2B receptors was determined using a FLIPR Ca^2+ flux assay at WuXi AppTec (Hong Kong) Limited according to their standard protocols. Briefly, stably transfected HEK293 cells expressing the receptor of interest were grown and plated in a 384 well plate and incubated at 37° C. and 5% CO2 overnight. This was combined with a fluorescent dye (Fluo-4 Direct™) to make a final assay concentration of 2.5 mM. Compounds were diluted 1:3.16 for 10 points and 750 nL was added to a 384 well compound plate using ECHO along with 30 μL assay buffer. The fluorescent dye was then added to the assay plate along with assay buffer to a final volume of 40 μL. The cell plate was incubated for 50 min at 37° C. and 5% CO2 and placed into the FLIPR Tetra along with the compound plate. 10 μL of references and compounds were then transferred from the compound plate into the cell plate and the fluorescent signal was read. Next, 10 μL of a 6× solution of 5-carboxamidotryptamine (5-CT) at the calculated EC80 was added and the fluorescent signal read again. Finally, the Max-Min signal was calculated for the runs with and without agonist.

[1] = Metabolic stability in human liver microsomes; assay type: in vitro ADME; settings: for half-life at 1 μM / microsomal CLint at 1 μM: both sexes, human, microsomes, pH 7.4
Experimental: HLM Stability. Pooled HLM from adult male and female donors (Corning 452117) were used. Microsomal incubations were carried out in multi-well plates. Liver microsomal incubation medium consisted of PBS (100 mM, pH 7.4), MgCl2 (1 mM), and NADPH (1 mM), with 0.50 mg of liver microsomal protein per mL. Control incubations were performed by replacing the NADPH-cofactor system with PBS. Test compounds (1 μM, final solvent concentration 1.0%) were incubated with microsomes at 37° C. with constant shaking. Six time points over 60 minutes were analyzed, with 60 μL aliquots of the reaction mixture being drawn at each time point. The reaction aliquots were stopped by adding 180 μL of cold (4° C.) acetonitrile containing 200 ng/mL tolbutamide and 200 ng/ml labetalol as internal standards (IS), followed by shaking for 10 minutes, and then protein sedimentation by centrifugation at 4,000 rpm for 20 minutes at 4° C. Supernatant samples (80 μL) were diluted with water (240 μL) and analyzed for parent compound remaining using a fit-for-purpose liquid chromatography-tandem mass spectrometry (LC-MS/MS) method.
Data Analysis. The elimination constant (kel), half-life (t1/2), and intrinsic clearance (CLint) were determined in a plot of […] versus time, using linear regression analysis.

5-HT2B receptor = target: T2, 5-HT2B receptor (Homo sapiens, UniProt P41595); assay: FLIPR Ca2+ flux functional assay, antagonist activity at 5-HT2B; assay type: cell-based; settings: for 5-HT2B % Inh @ Max Dose: at max dose
T2 construct: host or cells: HEK293 (stably transfected)
Experimental: as §1, §2

[2] = antagonist activity, Ca2+ flux, HEK293 cells, agonist at EC80, read-out: 5-HT2A IC50
[3] = HLM, 1 μM, 0.50 mg protein per mL, NADPH
[4] = antagonist activity, Ca2+ flux, HEK293 cells, agonist at EC80
[5] = antagonist activity, Ca2+ flux, HEK293 cells, agonist at EC80, read-out: 5-HT2B IC50

T1 sequence (P28223 whole entry): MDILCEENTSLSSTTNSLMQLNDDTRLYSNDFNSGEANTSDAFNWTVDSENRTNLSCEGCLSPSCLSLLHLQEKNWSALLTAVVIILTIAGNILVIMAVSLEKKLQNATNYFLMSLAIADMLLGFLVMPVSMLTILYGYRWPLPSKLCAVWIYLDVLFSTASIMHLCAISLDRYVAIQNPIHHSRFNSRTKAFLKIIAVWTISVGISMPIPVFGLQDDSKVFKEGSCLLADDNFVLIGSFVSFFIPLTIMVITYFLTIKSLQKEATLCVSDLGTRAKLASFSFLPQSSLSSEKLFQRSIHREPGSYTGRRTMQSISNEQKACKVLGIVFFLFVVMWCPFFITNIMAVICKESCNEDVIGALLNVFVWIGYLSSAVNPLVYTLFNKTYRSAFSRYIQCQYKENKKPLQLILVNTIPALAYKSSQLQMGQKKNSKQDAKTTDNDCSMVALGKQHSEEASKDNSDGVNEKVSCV
T2 sequence (P41595 whole entry): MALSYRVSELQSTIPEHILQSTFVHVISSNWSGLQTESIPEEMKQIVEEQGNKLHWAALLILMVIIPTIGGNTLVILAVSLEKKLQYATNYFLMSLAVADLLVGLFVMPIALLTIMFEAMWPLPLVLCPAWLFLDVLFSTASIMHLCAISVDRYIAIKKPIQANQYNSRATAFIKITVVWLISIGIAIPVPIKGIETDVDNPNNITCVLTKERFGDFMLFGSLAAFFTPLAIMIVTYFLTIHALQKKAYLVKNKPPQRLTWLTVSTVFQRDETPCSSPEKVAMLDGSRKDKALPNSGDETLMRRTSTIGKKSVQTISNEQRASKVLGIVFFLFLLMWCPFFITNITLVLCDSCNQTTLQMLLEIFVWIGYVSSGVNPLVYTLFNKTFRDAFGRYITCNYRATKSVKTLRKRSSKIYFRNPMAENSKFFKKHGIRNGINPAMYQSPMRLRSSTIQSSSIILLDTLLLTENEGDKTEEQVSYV

Row | Structure (SMILES) | fraction unbound at 4 h (in vitro) | % Remaining (120 minutes), rat plasma (Rat plasma stability; Method 2: 5 μM) [%] | IC50 (5-HT2A receptor; [2]) [µM] | 5-HT2A % Inh @ Max Dose (5-HT2A receptor; antagonist activity, Ca2+ flux) [%] | Metabolic stability in HLM [1] | Clint [1, 3] [µL/min/mg] | t1/2 [1, 3] [min] | 5-HT2B IC50 (nM) (5-HT2B receptor; [4]) | IC50 (5-HT2B receptor; [5]) [µM] | 5-HT2B % Inh @ Max Dose (5-HT2B receptor; antagonist activity, Ca2+ flux) [%] | half-life at 1 μM [1, 3] [min] | microsomal CLint at 1 μM [1, 3] [µL/min/mg] | IC50 (5-HT2A receptor) [µM] | fraction unbound at 4 h, 2 μM (in vitro) | % Remaining (120 minutes), rat plasma (Rat plasma stability; Method 1: 2 μM) [%] | IC50 (5-HT2B receptor) [µM]
1 | COc1cccc(CCc2ccccc2OCC(CN(C)C)OC(=O)CCC(=O)O)c1 (centres unmarked) [sarpogrelate] | 0.054 | 67 | – | – | – | – | – | – | – | – | – | – | – | – | – | –
2 | COc1cccc(OC(C)CNC(=N)Cc2cccc(C)c2)c1.O=C(O)C(F)(F)F (centres unmarked) [xylamidine, N-(2-(3-methoxyphenoxy)propyl)-2-(m-tolyl) acetimidamide trifluoroacetate] | – | 94 | 0.024 | 99.81 | poor metabolic stability | 448.6 | 3.1 | high potency antagonism | 0.0133 | 99.68 | – | – | – | – | – | –
3 | CC(C)COc1ccc(CNC(=O)N(Cc2ccc(F)cc2)C2CCN(C(=O)CC[C@H](N)C(=O)O)CC2)cc1 [Compound 14a, (S)-2-amino-5-(4-(1-(4-fluorobenzyl)-3-(4-isobutoxybenzyl)ureido)piperidin-1-yl)-5-oxopentanoic acid] | 0.078 | 97 | 0.297 | 100.01 | highly stable | – | – | – | > 10 | −12.17 | > 145 | < 9.6 | – | – | – | –
4 | COc1cccc(C(=O)Nc2ccc(OCCN3CCOCC3)c(-c3ccnn3C)c2)c1 [temanogrel] | 0.108 | 95 | – | – | – | – | – | – | – | – | – | – | – | – | – | –
5 | CC(CNC(=N)CNc1ccccc1)Oc1cccc(Cl)c1.O=CO (centres unmarked) [BW501C67, N-(2-(3-chlorophenoxy)propyl)-2-(phenylamino)acetimidamide formate] | – | – | – | 100.13 | poor metabolic stability | – | – | high potency antagonism | – | 99.74 | 7.2 | 192 | 0.0145 | 0.003 | 100.7 | 0.0216
